From patent US9738932B2, “Biomarkers for cardiovascular side-effects induced by cox-2 inhibitory compounds” (FIRALIS SAS, priority 2005, dated 2017)

System: mRNA expression in cardiovascular tissues
Experiment: Affymetrix GeneChip mRNA expression profiling of monkey tissues (iliac vein, pulmonary vein, aorta, carotid artery, heart) after two-week oral-gavage treatment
Conditions: iliac vein
[1] = group average (Vioxx without A60055)
[2] = group avg, Vioxx without A60055

Protocol: Administration of compounds. A two-week oral-gavage treatment with the Cox-2 specific inhibitor COX189 (Lumiracoxib®, Novartis) in comparison with rofecoxib (Vioxx®, Merck), and celecoxib (Celebrex®, Pharmacia/Pfizer), and with the nonselective NSAID, diclofenac (Voltaren®, Novartis) was performed. […] The test items were administered daily at doses of 100 mg/kg/day, except Vioxx® which was administered at 50 mg/kg/day.
Gene expression profiles. After a period of time (e.g., four weeks) of compound/drug administration, the treated animals are necropsied. 120 tissues are dissected and rapidly snap-frozen for genomics analysis. Organ samples are isolated for histopathological examinations and for gene expression localizations, such as by in situ hybridization.
Gene expression profiles have been generated using the Affymetrix microarray technology. (i) RNA extraction and purification: Briefly, total RNA was obtained by acid guanidinium thiocyanate-phenol-chloroform extraction (Trizol®, Invitrogen Life Technologies, San Diego, Calif.) from each frozen tissue section and the total RNA was then purified on an affinity resin (Rneasy®, Qiagen) according to the manufacturer's instructions. Total RNA was quantified by the absorbance at λ=260 nm (A260 nm) and the purity was estimated by the ratio A260 nm/A280 nm. Integrity of the RNA molecules was confirmed by non-denaturing agarose gel electrophoresis. RNA was stored at −80° C. until analysis. […] (ii) GeneChip® experiment: All GeneChip® experiments were conducted in the Genomics Factory EU following recommendations by the manufacturer of the GeneChip® system (Affymetrix, Expression Analysis Technical Manual (Affymetrix, Santa Clara, Calif., 2005). Human U133A genome arrays were used for transcript expression analysis. Double stranded cDNA was synthesized with a starting amount of approximately 5 μg full-length total RNA using the Superscript Choice System (Invitrogen Life Technologies) in the presence of a T7-(dT) 24 DNA oligonucleotide primer. Following synthesis, the cDNA was purified by phenol/chloroform/isoamyl alcohol extraction and ethanol precipitation. The purified cDNA was then transcribed in vitro using the BioArray® High Yield RNA Transcript Labeling Kit (ENZO) in the presence of biotinylated ribonucleotides form biotin labelled cRNA. The labelled cRNA was then purified on an affinity resin (Rneasy, Qiagen), quantified and fragmented. An amount of approximately 10 μg labelled cRNA was hybridized for approximately 16 hours at 45° C. to an expression probe array. The array was then washed and stained twice with streptavidin-phycoerythrin (Molecular Probes) using the GeneChip Fluidics Workstation 400 (Affymetrix). The array was then scanned twice using a confocal laser scanner (GeneArray Scanner®, Agilent) resulting in one scanned image. This resulting “.dat-file” was processed using the MASS program (Affymetrix) into a “.cel-file”. The “.cel file” was then transferred to tan Affymetrix GeneChip Laboratory Information Management System (LIMS) database, which is connected to a UNIX Sun Solaris server through a network filing system that allows for the average intensities for all probes cells (CEL file) to be downloaded into an Oracle database (NPGN). Raw data was converted to expression levels using a “target intensity” of 100. […] The data were checked for quality and loaded in the GeneSpring® software versions 5.0 (Silicon Genetics, Calif., US) for statistical analysis.
Quality control analysis of transcriptome data: The following quality measures were analysed for each sample: Scaling factor, background, percent present calls, AFFX-GAPDH 3′: AFFX-GAPDH 5′-ratio, AFFX-GAPDH 3′ variance, AFFX-Beta-actin 3′: AFFX-Beta-actin 5′-ratio.

Structure (SMILES): CS(=O)(=O)c1ccc(C2=C(c3ccccc3)C(=O)OC2)cc1 [Vioxx®, rofecoxib]
- BCL6 (215990_s_at) mRNA expression, Avg fold changes vs control [1]: 1.0 fold
- BTN2A2 (205298_s_at) mRNA expression, Avg fold changes vs control [1]: 1.1 fold
- CCR1 (205098_at) mRNA expression, Avg fold changes vs control [1]: 1.1 fold
- CD2 (205831_at) mRNA expression, Avg fold changes vs control [1]: 1.1 fold
- CD48 (204118_at) mRNA expression, Avg fold changes vs control [1]: 1.1 fold
- CD53 (203416_at) mRNA expression, Avg fold changes vs control [1]: 1.2 fold
- CDC2 (210559_s_at) mRNA expression, Avg fold changes vs control [1]: 1.0 fold
- CYBB (203922_s_at) mRNA expression, Avg fold changes vs control [1]: 1.2 fold
- EMP3 (203729_at) mRNA expression, Avg fold changes vs control [1]: 0.7 fold
- FCER1G (204232_at) mRNA expression, Avg fold changes vs control [1]: 0.9 fold
- FCGR2A (203561_at) mRNA expression, Avg fold changes vs control [1]: 1.1 fold
- FCGRT (218831_s_at) mRNA expression, Avg fold changes vs control [1]: 1.0 fold
- FKBP11 (219117_s_at) mRNA expression, Avg fold changes vs control [1]: 0.7 fold
- FKBP11 (219118_at) mRNA expression, Avg fold changes vs control [1]: 0.6 fold
- GP6 (220336_s_at) mRNA expression, Avg fold changes vs control [1]: 1.2 fold
- HCLS1 (202957_at) mRNA expression, Avg fold changes vs control [1]: 1.2 fold
- HEM1 (209734_at) mRNA expression, Avg fold changes vs control [1]: 1.2 fold
- HLA-A (210514_x_at) mRNA expression, Avg fold changes vs control [1]: 1.2 fold
- HLA-A (213932_x_at) mRNA expression, Avg fold changes vs control [1]: 1.2 fold
- HLA-C (211799_x_at) mRNA expression, Avg fold changes vs control [1]: 1.0 fold
- HLA-E (200904_at) mRNA expression, Avg fold changes vs control [1]: 1.1 fold
- HLA-F (221978_at) mRNA expression, Avg fold changes vs control [1]: 1.3 fold
- ICAM1 (202637_s_at) mRNA expression, Avg fold changes vs control [1]: 0.8 fold
- IL13RA1 (210904_s_at) mRNA expression, Avg fold changes vs control [1]: 1.1 fold
- PIK3CD (203879_at) mRNA expression, Avg fold changes vs control [1]: 1.1 fold
- PRKCBP1 (209048_s_at) mRNA expression, Avg fold changes vs control [1]: 1.3 fold
- PRKCBP1 (209049_s_at) mRNA expression, Avg fold changes vs control [1]: 1.0 fold
- PTPN7 (204852_s_at) mRNA expression, Avg fold changes vs control [1]: 1.4 fold
- SIGIRR (52940_at) mRNA expression, Avg fold changes vs control [1]: 1.1 fold
- STAT1 (200887_s_at) mRNA expression, Avg fold changes vs control [1]: 1.2 fold
- STAT1 (AFFX-HUMISGF3A/M97935_3_at) mRNA expression, Avg fold changes vs control [1]: 1.1 fold
- STAT3 (208992_s_at) mRNA expression, Avg fold changes vs control [1]: 1.0 fold
- TCIRG1 (204158_s_at) mRNA expression, Avg fold changes vs control [1]: 1.0 fold
- THY1 (213869_x_at) mRNA expression, Avg fold changes vs control [1]: 0.8 fold
- TMPO (209753_s_at) mRNA expression, Avg fold changes vs control [1]: 0.8 fold
- TMSB10 (217733_s_at) mRNA expression, Avg fold changes vs control [1]: 1.1 fold
- TNFRSF21 (218856_at) mRNA expression, Avg fold changes vs control [1]: 1.2 fold
- TRB@ (210915_x_at) mRNA expression, Avg fold changes vs control [1]: 1.3 fold
- TRB@ (213193_x_at) mRNA expression, Avg fold changes vs control [1]: 1.2 fold
- 209813_x_at avg fold change vs control [2]: 0.4 fold
- AIF1 (209901_x_at) avg fold change vs control [2]: 0.3 fold
- AIF1 (213095_x_at) avg fold change vs control [2]: 0.6 fold
- B2M (201891_s_at) avg fold change vs control [2]: 1.4 fold
- BCL3 (204908_s_at) avg fold change vs control [2]: 0.7 fold
- BTN3A1 (207485_x_at) avg fold change vs control [2]: 2.0 fold
- BTN3A3 (38241_at) avg fold change vs control [2]: 14 fold
- BTN3A3 (204820_s_at) avg fold change vs control [2]: 1.6 fold
- BTN3A3 (204821_at) avg fold change vs control [2]: 1.7 fold
- C1QA (218232_at) avg fold change vs control [2]: 0.9 fold
- C1QB (202953_at) avg fold change vs control [2]: 1.0 fold
- C1R (212067_s_at) avg fold change vs control [2]: 0.9 fold
- C1S (208747_s_at) avg fold change vs control [2]: 1.3 fold
- C2 (203052_at) avg fold change vs control [2]: 0.9 fold
- C4A (208451_s_at) avg fold change vs control [2]: 1.1 fold
- CASP1 (209970_x_at) avg fold change vs control [2]: 1.1 fold
- CASP1 (211367_s_at) avg fold change vs control [2]: 1.4 fold
- CCL2 (216598_s_at) avg fold change vs control [2]: 1.0 fold
- CCL3 (205114_s_at) avg fold change vs control [2]: 1.4 fold
- CCL5 (1405_i_at) avg fold change vs control [2]: 0.5 fold
- CCL8 (214038_at) avg fold change vs control [2]: 1.8 fold
- CCL18 (209924_at) avg fold change vs control [2]: 0.7 fold
- CCL19 (210072_at) avg fold change vs control [2]: 1.2 fold
- CCNB2 (202705_at) avg fold change vs control [2]: 1.4 fold
- CD3D (213539_at) avg fold change vs control [2]: 2.0 fold
- CD8A (205758_at) avg fold change vs control [2]: 1.3 fold
- CD14 (201743_at) avg fold change vs control [2]: 0.8 fold
- CD74 (209619_at) avg fold change vs control [2]: 1.1 fold
- CLU (208791_at) avg fold change vs control [2]: 0.9 fold
- CMAH (210571_s_at) avg fold change vs control [2]: 1.0 fold
- CTSC (201487_at) avg fold change vs control [2]: 1.1 fold
- CTSK (202450_s_at) avg fold change vs control [2]: 1.3 fold
- CTSS (202902_s_at) avg fold change vs control [2]: 1.0 fold
- CX3CR1 (205898_at) avg fold change vs control [2]: 1.0 fold
- CXCL9 (203915_at) avg fold change vs control [2]: 1.6 fold
- CXCL10 (204533_at) avg fold change vs control [2]: 1.1 fold
- CXCL11 (210163_at) avg fold change vs control [2]: 1.5 fold
- CXCL11 (211122_s_at) avg fold change vs control [2]: 1.0 fold
- CXCL12 (209687_at) avg fold change vs control [2]: 1.0 fold
- CYBA (203028_s_at) avg fold change vs control [2]: 1.1 fold
- CYBB (203923_s_at) avg fold change vs control [2]: 0.9 fold
- CYP1B1 (202436_s_at) avg fold change vs control [2]: 1.0 fold
- CYP3A5 (214234_s_at) avg fold change vs control [2]: 0.9 fold
- CYP11B1 (214630_at) avg fold change vs control [2]: 0.8 fold
- DUSP6 (208893_s_at) avg fold change vs control [2]: 1.0 fold
- ECGF1 (204858_s_at) avg fold change vs control [2]: 1.9 fold
- ECM1 (209365_s_at) avg fold change vs control [2]: 1.3 fold
- F2RL1 (206429_at) avg fold change vs control [2]: 2.0 fold
- F13A1 (203305_at) avg fold change vs control [2]: 0.9 fold
- FCGR1A (214511_x_at) avg fold change vs control [2]: 0.6 fold
- FCGR3A (204006_s_at) avg fold change vs control [2]: 0.8 fold
- G1P2 (205483_s_at) avg fold change vs control [2]: 3.3 fold
- GZMB (210164_at) avg fold change vs control [2]: 1.6 fold
- HCA127 (220040_x_at) avg fold change vs control [2]: 0.6 fold
- HCK (208018_s_at) avg fold change vs control [2]: 1.2 fold
- HFE (210864_x_at) avg fold change vs control [2]: 1.2 fold
- HFE (211329_x_at) avg fold change vs control [2]: 0.9 fold
- HFE (211332_x_at) avg fold change vs control [2]: 1.0 fold
- HFE (211863_x_at) avg fold change vs control [2]: 0.8 fold
